Values quoted from earlier work in patent US7491730B2, “Compositions useful as inhibitors of GSK-3” (Vertex Pharmaceuticals Incorporated, priority 2002, dated 2009).
pIC50: −log10 of the molar value.

Target: gamma secretase
Details: vendor value, Calbiochem catalog #565771; read-out: reported IC50

- pIC50: 7.30
SMILES: CC(C)C[C@H](NC(=O)[C@H](Cc1ccccc1)C[C@@H](O)[C@H](Cc1ccccc1)NC(=O)OC(C)(C)C)C(=O)N[C@@H](Cc1ccccc1)C(N)=O [Inhibitor X]
